Data: US20260356809A1 (The United States of America, as represented by the …, priority 2022, published 2026)
Where two headings read alike, the source gives them in different places.

How the values were obtained:
5-HT1A [1] = biological target: T1, 5-HT1A (Homo sapiens, UniProt P08908); assay: 5-HT1A [35S]GTPγS, agonist; format: biochemical
T1 sequence (P08908 1-422): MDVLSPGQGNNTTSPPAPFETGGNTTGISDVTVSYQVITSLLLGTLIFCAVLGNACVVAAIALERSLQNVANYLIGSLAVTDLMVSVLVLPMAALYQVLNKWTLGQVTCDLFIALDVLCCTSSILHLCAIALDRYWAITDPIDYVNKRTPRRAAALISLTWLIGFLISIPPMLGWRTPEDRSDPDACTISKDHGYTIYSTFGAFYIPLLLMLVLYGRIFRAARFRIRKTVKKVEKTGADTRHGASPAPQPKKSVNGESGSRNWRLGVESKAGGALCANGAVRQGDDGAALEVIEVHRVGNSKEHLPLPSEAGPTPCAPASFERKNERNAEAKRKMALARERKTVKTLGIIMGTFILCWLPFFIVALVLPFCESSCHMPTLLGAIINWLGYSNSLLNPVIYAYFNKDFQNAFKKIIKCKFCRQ

D2LR [2] = biological target: T2, D2LR (Homo sapiens, UniProt P14416); format: cell-based; settings: GPA GαoA assay
T2 construct: expressed in transfected cells; host or cells: HEK 293T, transient

5-HT2C [3] = biological target: T3, 5-HT2C (Homo sapiens, UniProt P28335); assay: 5-HT2C IP-1, agonist; format: cell-based
T3 sequence (P28335 33-458): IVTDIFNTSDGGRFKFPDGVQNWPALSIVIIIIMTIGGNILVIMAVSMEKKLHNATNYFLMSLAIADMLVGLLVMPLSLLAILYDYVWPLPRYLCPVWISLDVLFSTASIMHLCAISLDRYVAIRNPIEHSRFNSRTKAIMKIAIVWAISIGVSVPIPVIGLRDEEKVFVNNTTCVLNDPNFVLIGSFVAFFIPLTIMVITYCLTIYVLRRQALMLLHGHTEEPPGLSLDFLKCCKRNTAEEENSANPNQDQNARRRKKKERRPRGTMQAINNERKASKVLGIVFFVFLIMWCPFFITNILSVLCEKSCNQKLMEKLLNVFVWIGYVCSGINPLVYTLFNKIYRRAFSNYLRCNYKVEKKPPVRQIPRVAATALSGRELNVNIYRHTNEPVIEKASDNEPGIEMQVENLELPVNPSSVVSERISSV

D2LR [4] = biological target: T2, D2LR; format: cell-based; settings: miniG recruitment assay
[5] = test system: cocaine self-administration in rats; assay: cocaine self-administration under progressive ratio (PR) break-point; format: in vivo, Long-Evans rats; settings: i.p. 30 min prior
5-HT2C [6] = biological target: T3, 5-HT2C; assay: 5-HT2C IP-1, antagonist; format: cell-based
5-HT2A [7] = biological target: T4, 5-HT2A (Homo sapiens, UniProt P28223); format: cell-based; settings: antagonist mode
5-HT2B [8] = biological target: T5, 5-HT2B (Homo sapiens, UniProt P41595); assay: 5-HT2B IP-1, antagonist; format: cell-based; settings: for 5-HT2B IP-1 Emax ± SEM: antagonist mode
5-HT2B [9] = biological target: T5, 5-HT2B; assay: 5-HT2B IP-1, agonist; format: cell-based; settings: agonist mode
5-HT2A [10] = biological target: T4, 5-HT2A; assay: 5-HT2A IP-1, agonist; format: cell-based; settings: agonist mode
5-HT1A [11] = biological target: T1, 5-HT1A; assay: 5-HT1A off-target binding, [3H]-8-OH-DPAT; settings: read-out: 5-HT1A Ki ± SEM
5-HT2B [12] = biological target: T5, 5-HT2B; assay: 5-HT2B off-target binding, [3H]5-HT; settings: read-out: 5-HT2B Ki ± SEM
D4R = biological target: T6, D4R (Homo sapiens, UniProt P21917); assay: D4R off-target binding, [3H]-spiperone; settings: read-out: D4R Ki ± SEM
T6 sequence (P21917 1-419): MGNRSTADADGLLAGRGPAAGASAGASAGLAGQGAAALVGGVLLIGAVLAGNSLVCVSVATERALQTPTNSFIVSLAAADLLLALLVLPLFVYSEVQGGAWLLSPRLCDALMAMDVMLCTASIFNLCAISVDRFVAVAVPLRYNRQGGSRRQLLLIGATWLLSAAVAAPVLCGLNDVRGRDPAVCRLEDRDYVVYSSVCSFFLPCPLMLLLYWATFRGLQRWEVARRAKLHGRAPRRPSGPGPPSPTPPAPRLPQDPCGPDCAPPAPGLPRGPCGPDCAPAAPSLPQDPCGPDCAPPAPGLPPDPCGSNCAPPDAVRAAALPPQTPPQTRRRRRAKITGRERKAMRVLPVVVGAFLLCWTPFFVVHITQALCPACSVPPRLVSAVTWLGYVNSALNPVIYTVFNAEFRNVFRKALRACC

T5 sequence (P41595 whole entry, species assumed): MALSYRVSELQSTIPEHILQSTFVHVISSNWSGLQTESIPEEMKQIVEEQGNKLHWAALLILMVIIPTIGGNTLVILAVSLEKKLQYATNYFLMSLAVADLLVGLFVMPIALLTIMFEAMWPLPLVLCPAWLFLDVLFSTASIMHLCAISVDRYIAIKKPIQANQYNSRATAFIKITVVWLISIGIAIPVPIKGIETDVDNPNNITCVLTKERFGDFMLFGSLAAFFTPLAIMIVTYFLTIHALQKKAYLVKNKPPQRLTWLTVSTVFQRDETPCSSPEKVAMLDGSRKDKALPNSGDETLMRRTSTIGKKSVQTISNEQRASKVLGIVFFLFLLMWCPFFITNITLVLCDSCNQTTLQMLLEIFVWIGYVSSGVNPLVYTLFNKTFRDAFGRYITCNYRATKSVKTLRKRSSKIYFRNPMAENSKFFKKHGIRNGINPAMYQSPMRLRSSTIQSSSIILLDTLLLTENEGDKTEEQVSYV
T2 sequence (P14416 whole entry): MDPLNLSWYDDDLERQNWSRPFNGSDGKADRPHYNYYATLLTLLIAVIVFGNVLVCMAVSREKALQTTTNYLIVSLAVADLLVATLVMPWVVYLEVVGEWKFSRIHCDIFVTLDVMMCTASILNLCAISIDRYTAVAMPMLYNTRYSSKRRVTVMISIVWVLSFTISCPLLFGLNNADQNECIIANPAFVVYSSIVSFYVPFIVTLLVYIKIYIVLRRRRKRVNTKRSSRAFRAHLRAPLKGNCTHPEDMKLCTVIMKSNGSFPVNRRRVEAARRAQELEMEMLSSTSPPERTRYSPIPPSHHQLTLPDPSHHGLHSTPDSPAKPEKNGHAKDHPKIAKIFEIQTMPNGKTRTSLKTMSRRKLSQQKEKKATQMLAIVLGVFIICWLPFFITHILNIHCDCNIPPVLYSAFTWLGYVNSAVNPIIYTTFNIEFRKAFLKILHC
T4 sequence (P28223 whole entry, species assumed): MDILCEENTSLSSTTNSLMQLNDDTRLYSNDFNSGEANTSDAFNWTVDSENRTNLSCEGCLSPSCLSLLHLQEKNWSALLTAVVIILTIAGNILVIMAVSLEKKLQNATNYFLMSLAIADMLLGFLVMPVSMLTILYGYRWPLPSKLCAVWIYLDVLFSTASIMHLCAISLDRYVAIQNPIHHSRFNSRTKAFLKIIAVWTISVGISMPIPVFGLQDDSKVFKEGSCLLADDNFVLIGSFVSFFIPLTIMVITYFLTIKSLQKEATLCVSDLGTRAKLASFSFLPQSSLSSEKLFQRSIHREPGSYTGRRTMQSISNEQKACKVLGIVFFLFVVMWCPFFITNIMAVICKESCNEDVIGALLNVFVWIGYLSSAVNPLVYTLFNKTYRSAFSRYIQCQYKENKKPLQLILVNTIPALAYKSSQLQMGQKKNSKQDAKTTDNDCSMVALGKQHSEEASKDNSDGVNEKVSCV

Compound | 5-HT1A [35S]GTPγS Emax ± SEM (5-HT1A [1]; agonist mode) | D2R activity in words, GPA assay (D2LR [2]) | 5-HT2C IP-1 Emax ± SEM (5-HT2C [3]; agonist mode) | EC50 (5-HT2C [3]; agonist mode, read-out: 5-HT2C IP-1 EC50 ± SEM) | D2R activity in words, miniG assay (D2LR [4]) | effect on lever pressing / PR break-point for cocaine [5] | IC50 (5-HT2C [6]) | 5-HT2C IP-1 Emax ± SEM (5-HT2C [6]; antagonist mode) | 5-HT2A IP-1 Emax ± SEM (5-HT2A [7]) | EC50 (5-HT2C [3]) | 5-HT2B IP-1 Emax ± SEM (5-HT2B [8]) | 5-HT2B IP-1 Emax ± SEM (5-HT2B [9]) | 5-HT2A IP-1 Emax ± SEM (5-HT2A [10]) | EC50 (5-HT1A [1]) | IC50 (5-HT2B [8]) | EC50 (5-HT2B [9]; read-out: 5-HT2B IP-1 EC50 ± SEM) | Ki (5-HT1A [11]) | Ki (5-HT2B [12]) | Ki (D4R)
CN(C)C(=O)N[C@H]1CC[C@H](CCN2CCN(c3cccc(Cl)c3Cl)CC2)CC1 [Compound 6a, 3-(trans-4-(2-(4-(2,3-Dichlorophenyl)piperazin-1-yl)ethyl)cyclohexyl)-1,1-dimethylurea] | 89.6 ± 3.6% | maximal effect similar to quinpirole | 49.2 ± 6.6% | 215 ± 22 nM | D2R partial agonists | reduce the reinforcing efficacy of cocaine | > 5000 nM | 9.2 ± 2.7% | – | – | – | – | – | – | – | – | – | – | –
CCc1cccc(N2CCN(CC[C@H]3CC[C@H](NC(=O)CCOC)CC3)CC2)c1Cl [Compound 13b, N-(trans-4-(2-(4-(2-Chloro-3-ethylphenyl)piperazin-1-yl)ethyl)cyclohexyl)-3-methoxypropanamide] | – | – | – | – | – | – | – | – | 62.7 ± 5.8% | 43.5 ± 5.3 nM | 100 ± 0% | <1% | 25.9 ± 1.9% | – | – | – | – | – | –
COCCC(=O)N[C@H]1CC[C@H](CCN2CCN(c3cccc(OC)c3F)CC2)CC1 [Compound 13c, N-(trans-4-(2-(4-(2-Fluoro-3-methoxyphenyl)piperazin-1-yl)ethyl)cyclohexyl)-3-methoxypropanamide] | – | full agonists | – | – | full agonists | – | – | – | – | – | 82 ± 18% | <1% | – | 121 ± 10 nM | 519 ± 81 nM | > 10000 nM | 69.9 ± 1.7 nM | 29.6 ± 9.5 nM | 734 ± 16 nM
